According to publication PMC4077706, “Lifting the Mask: Identification of New Small Molecule Inhibitors of Uropathogenic Escherichia coli Group 2 Capsule Biogenesis” (PLoS ONE, 2014):

How the values were obtained:
[1] = target: Calcium Channel N-Type (Rattus norvegicus, UniProt Q02294); experiment: biochemical; format: binding; conditions: 10 µM
[2] = system: E. coli EV36 (K1:K-12 hybrid strain); experiment: T7 phage counter assay; format: cell-based, Escherichia coli; conditions: average of at least 3 replicates ± SEM
Experimental: This secondary assay was performed as previously described and was used to distinguish compounds with phage inhibitory effects from true polysaccharide capsule inhibitors. […] Thus, the presence of a capsule inhibits T7-mediated lysis. In this assay, an increase in phage-induced lysis correlates to a decrease in capsule formation. […]. […] The positive control molecule C7 (100 µM final well concentration) was used in this screen.

[3] = target: T1, Bradykinin B1 (Homo sapiens, UniProt P46663); format: binding; conditions: 10 µM
T1 construct: Human IMR-90 cells; host or cells: IMR-90 cells

[4] = target: T2, Platelet Activating Factor (PAF) (Homo sapiens, UniProt P25105); format: binding; conditions: 10 µM
T2 construct: Human platelets; host or cells: human platelets

[5] = target: Serotonin (5-Hydroxytryptamine) 5-HT2B (Homo sapiens, UniProt P41595); experiment: Radioligand binding 271700; parameters: host or cells: CHO-K1; conditions: 10 µM
[6] = target: Nicotinic Acetylcholine α1, Bungarotoxin (Homo sapiens, UniProt P02708+P07510+Q07001); format: binding; conditions: 10 µM
[7] = target: T3, Muscarinic M1 (Homo sapiens, UniProt P11229); experiment: Radioligand binding 252610; conditions: 10 µM
T3 construct: host or cells: CHO-K1 cells

[8] = target: T4, Leukotriene, Cysteinyl CysLT1 (Homo sapiens, UniProt Q9Y271); experiment: Radioligand binding 250460; conditions: 10 µM
T4 construct: host or cells: CHO-K1 cells

[9] = system: Nicotinic Acetylcholine; experiment: Radioligand binding 258590; parameters: species or system human; conditions: 10 µM
[10] = target: Opiate κ(OP2, KOP) (Homo sapiens, UniProt P41145); format: binding; conditions: 10 µM
Opiate κ(OP2, KOP), sequence (P41145 whole entry): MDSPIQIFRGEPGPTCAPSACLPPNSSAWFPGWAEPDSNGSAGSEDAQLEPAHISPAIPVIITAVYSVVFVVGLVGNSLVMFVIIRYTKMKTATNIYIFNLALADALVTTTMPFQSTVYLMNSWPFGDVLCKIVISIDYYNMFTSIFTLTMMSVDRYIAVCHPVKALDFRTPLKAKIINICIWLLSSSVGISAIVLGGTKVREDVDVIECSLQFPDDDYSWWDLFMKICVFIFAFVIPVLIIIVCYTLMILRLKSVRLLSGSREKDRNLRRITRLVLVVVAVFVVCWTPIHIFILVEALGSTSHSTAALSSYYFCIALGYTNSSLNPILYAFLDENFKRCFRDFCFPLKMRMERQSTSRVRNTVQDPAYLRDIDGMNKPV

T3 sequence (P11229 whole entry): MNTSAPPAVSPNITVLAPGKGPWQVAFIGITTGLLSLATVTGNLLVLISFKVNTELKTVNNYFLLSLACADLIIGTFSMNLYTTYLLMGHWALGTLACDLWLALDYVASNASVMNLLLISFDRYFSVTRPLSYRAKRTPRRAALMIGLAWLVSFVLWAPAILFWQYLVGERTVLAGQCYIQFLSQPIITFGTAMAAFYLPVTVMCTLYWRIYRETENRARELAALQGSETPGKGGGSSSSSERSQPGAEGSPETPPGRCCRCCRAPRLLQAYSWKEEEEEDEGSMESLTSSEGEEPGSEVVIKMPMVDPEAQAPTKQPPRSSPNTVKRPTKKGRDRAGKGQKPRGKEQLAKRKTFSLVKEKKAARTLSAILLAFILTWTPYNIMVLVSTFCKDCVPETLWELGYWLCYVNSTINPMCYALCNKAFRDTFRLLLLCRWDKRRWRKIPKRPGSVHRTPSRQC
Serotonin (5-Hydroxytryptamine) 5-HT2B, sequence (P41595 whole entry): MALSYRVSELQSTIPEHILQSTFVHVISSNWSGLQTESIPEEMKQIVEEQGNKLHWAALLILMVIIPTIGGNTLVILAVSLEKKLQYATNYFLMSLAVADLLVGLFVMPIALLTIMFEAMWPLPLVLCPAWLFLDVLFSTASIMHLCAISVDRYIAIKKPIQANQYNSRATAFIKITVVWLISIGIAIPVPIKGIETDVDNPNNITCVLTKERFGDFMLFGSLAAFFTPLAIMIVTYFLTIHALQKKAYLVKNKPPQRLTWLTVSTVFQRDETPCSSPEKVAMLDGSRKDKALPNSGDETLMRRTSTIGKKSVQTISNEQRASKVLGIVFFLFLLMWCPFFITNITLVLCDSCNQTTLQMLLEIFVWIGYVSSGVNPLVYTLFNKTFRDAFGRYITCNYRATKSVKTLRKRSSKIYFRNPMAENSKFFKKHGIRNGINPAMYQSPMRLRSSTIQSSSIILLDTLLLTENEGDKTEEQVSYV
T4 sequence (Q9Y271 whole entry): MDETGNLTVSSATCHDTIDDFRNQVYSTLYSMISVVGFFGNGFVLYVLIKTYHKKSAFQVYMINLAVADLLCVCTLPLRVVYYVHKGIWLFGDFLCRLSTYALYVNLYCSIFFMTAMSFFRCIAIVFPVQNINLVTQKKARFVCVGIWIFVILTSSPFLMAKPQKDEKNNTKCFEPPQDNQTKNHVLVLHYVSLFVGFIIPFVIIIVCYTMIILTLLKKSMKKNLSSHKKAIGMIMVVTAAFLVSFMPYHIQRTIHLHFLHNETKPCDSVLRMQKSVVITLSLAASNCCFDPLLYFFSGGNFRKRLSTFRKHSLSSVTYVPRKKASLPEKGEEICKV
Nicotinic Acetylcholine α1, Bungarotoxin, sequence (P11230 24-501): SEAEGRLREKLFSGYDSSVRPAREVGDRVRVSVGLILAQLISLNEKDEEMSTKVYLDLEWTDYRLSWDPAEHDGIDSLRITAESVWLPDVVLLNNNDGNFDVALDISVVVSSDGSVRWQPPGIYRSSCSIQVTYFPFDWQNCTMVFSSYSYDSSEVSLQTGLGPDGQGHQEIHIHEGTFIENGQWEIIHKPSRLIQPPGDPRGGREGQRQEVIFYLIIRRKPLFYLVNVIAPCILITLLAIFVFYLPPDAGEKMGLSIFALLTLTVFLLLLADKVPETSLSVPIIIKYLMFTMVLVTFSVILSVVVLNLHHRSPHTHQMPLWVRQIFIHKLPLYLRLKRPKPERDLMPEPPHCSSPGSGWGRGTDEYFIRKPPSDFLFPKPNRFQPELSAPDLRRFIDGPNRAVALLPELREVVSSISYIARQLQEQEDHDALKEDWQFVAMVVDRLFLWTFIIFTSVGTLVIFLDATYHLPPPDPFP
Nicotinic Acetylcholine α1, Bungarotoxin, sequence (P02708 21-457): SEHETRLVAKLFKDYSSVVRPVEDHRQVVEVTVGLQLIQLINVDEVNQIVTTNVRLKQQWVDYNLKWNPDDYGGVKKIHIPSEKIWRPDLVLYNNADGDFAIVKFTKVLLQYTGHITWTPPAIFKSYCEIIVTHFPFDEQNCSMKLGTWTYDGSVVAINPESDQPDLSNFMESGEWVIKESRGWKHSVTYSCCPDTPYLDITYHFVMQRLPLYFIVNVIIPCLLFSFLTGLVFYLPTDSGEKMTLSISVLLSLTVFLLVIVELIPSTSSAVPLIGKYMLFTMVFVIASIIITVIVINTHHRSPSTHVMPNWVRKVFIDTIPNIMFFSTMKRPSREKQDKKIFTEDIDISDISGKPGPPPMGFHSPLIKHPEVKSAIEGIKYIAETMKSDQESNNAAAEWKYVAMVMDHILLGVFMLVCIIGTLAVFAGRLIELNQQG
Nicotinic Acetylcholine α1, Bungarotoxin, sequence (P07510 23-517): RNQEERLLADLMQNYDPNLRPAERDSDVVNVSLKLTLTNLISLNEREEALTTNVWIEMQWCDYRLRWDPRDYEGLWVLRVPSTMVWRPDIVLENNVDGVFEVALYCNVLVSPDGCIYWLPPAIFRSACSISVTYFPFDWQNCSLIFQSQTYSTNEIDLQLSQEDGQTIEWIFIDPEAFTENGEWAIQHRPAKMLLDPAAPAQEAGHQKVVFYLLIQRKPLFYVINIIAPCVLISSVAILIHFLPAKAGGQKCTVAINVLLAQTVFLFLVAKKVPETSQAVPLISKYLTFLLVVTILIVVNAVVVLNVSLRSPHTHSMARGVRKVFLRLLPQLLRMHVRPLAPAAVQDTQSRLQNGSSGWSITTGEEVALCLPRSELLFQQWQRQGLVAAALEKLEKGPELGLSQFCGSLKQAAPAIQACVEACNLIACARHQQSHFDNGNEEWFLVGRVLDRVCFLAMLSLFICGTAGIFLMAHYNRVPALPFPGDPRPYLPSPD
Nicotinic Acetylcholine α1, Bungarotoxin, sequence (Q07001 22-517): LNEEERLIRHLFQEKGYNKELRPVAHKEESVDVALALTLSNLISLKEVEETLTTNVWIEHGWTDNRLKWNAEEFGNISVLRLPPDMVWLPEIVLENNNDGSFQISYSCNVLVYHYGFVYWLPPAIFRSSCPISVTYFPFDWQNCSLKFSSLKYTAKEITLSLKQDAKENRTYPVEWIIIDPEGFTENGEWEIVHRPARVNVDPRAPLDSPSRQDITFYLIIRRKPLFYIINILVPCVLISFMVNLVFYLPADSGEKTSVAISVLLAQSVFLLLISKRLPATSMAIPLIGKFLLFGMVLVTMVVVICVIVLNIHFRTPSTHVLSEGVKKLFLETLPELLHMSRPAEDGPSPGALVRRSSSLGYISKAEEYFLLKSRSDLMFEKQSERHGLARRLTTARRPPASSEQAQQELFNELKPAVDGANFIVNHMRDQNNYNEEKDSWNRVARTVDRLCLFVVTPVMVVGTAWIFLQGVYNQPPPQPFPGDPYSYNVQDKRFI
T1 sequence (P46663 whole entry): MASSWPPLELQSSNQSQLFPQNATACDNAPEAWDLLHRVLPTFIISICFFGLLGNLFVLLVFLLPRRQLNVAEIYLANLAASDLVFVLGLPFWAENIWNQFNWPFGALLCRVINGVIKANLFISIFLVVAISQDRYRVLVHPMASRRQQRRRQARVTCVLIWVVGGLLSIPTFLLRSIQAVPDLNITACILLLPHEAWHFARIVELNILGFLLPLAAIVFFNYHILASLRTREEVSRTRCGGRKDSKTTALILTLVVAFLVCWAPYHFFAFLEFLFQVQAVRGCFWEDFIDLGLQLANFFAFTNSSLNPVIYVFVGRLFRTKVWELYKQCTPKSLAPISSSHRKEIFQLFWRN
T2 sequence (P25105 whole entry): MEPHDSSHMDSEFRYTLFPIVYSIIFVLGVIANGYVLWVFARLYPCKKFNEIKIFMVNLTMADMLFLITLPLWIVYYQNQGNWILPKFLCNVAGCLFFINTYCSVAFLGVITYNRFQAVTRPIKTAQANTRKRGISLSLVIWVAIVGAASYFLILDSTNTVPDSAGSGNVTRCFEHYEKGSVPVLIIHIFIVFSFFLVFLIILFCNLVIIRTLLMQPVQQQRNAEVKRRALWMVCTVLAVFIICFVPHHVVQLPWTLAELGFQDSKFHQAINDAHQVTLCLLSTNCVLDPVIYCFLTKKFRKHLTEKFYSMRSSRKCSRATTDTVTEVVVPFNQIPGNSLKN

Which “% Inh.” value [1] does the source give for `CCOc1ccc(-c2cc(NC(=O)c3c(F)cccc3F)c(C(=O)O)s2)cc1` [DU011] here?
Its value is -18%.

And the IC50 [2]?
The IC50 was 690 ± 780 nM.

And the “% Inh.” value [3]?
The value was 12%.

What about the “% Inh.” value [4] of the same compound?
The value was -1%.

And the “% Inh.” value [5]?
Its value is 19%.

And the “% Inh.” value [6]?
The value was 8%.

And the “% Inh.” value [7]?
The value was 10%.

And the “% Inh.” value [8]?
The value was 19%.

And the “% Inh.” value [9]?
The value was 22%.

What about the “% Inh.” value [10] of the same compound?
The value was 10%.
